From PubChem BioAssay (NCI) come the findings set out here.

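Five compound concentrations were applied to cells in 96-well plates for 48 hours; endpoints were derived by simple linear interpolation of the resulting dose-response curve. At the TGI there is no net growth.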 Some results are limits rather than exact numbers.

What all share (test): DTP human tumour cell line panel, 48 h
Experiment [1] has as its system UO-31 renal.
Experiment [2] concerns SK-MEL-28 melanoma.
The test system of experiment [3] is SF-268 CNS.
The test system of experiment [4] is NCI-H460 lung.
The test system of experiment [5] is DU-145 prostate.
Experiment [6] relates to NCI-H522 lung.
Experiment [7] deals with NCI-H226 lung.
The test system of experiment [8] is ACHN renal.
The test system of experiment [9] is PC-3 prostate.
Experiment [10] has as its system NCI/ADR-RES ovarian.
In experiment [11] the test system is KM12 colon.
For experiment [12], the system named is OVCAR-3 ovarian.
In experiment [13] the test system is HCT-116 colon.
Experiment [14] deals with U251 CNS.
Experiment [15] deals with A549 NSCLC.
For experiment [16], the system named is SF-539 CNS.
Experiment [17] has as its system CAKI-1 renal.
The test system of experiment [18] is OVCAR-8 ovarian.
Experiment [19] relates to SF-295 CNS.
In experiment [20] the test system is SNB-75 CNS.

As to `CCOC(=O)c1c(N2CCOCC2)[nH]c(=O)c(C(c2ccc(Cl)c([N+](=O)[O-])c2)c2c(O)c(C(=O)OCC)c(N3CCOCC3)[nH]c2=O)c1O`, the TGI (commonly the concentration at which net growth stops) in experiment [1] is 95.5 µM; in experiment [2] it was over 100 µM; in experiment [3], over 100 µM; in experiment [4] it was over 100 µM; in [5], 55.8 µM; in experiment [6] it was 55.2 µM. Besides, the TGI was over 100 µM in [7]; over 100 µM in experiment [8]; 50.1 µM in experiment [9]; over 100 µM in experiment [10]; over 100 µM in experiment [11]; 35.5 µM in [12]. The TGI in experiment [13] was 63.6 µM; in [14], 41.9 µM; in experiment [15], over 100 µM; in experiment [16], 59.7 µM; in [17], over 100 µM; in [18], 37 µM. Besides, the TGI in experiment [19] and in experiment [20] was over 100 µM in each case.
For the molecule `CCOC(=O)C(Cc1cn(S(=O)(=O)c2ccc(C)cc2)cn1)P(=O)(OCC)OCC` (stereo not given), the TGI in [1], in experiment [2], in experiment [3], in experiment [4], in [5] and in experiment [6] was over 100 µM in each case. Besides, the TGI in experiment [7], in experiment [8], in experiment [9], in [10], in experiment [11] and in [12] was over 100 µM throughout. Further, the TGI in experiment [13], in experiment [14], in experiment [15], in [16], in experiment [17] and in experiment [18] was over 100 µM each time. Also, the TGI in experiment [19] and in experiment [20] was over 100 µM throughout.
`COC(=O)c1ccc(NCc2cc(O)ccc2O)cc1O`: the TGI in experiment [1] was 5.61 µM; in experiment [2], 30 µM; in [3], 21.8 µM; in experiment [4] it was 31.2 µM; in experiment [5], 25.3 µM; in [6] it was 1.59 µM. Besides, the total growth inhibition concentration (TGI) in experiment [7] is 46.3 µM; in experiment [8] it was 22.2 µM; in experiment [9] it was over 32.3 µM; in experiment [10], 10.8 µM; in experiment [11], 15.3 µM; in experiment [12], 15.2 µM. The TGI in experiment [13] came out at 36.3 µM; in experiment [14], 24.2 µM; in experiment [15], 30.4 µM; in [16], 6.31 µM; in experiment [17] it was 17.7 µM; in experiment [18] it was 19.8 µM. The results for the TGI in experiment [19] and in experiment [20] were 27.2 µM and 22 µM, respectively.
